For this test, the target named is T1, human CGRP receptor (Homo sapiens, UniProt O60894+Q16602).
T1 construct: SK-N-MC cells are cultivated in “Dulbecco's modified Eagle medium”; endogenous in cells; host or cells: SK-N-MC cells (membrane homogenate)
Kind of test: Binding studies with SK-N-MC cells (expressing the human CGRP receptor), 125I-CGRP displacement on membranes. As to conditions: SK-N-MC cell membranes, 50 pM 125I-iodotyrosyl-CGRP, 180 min at ambient temperature. The procedure:
A. Binding Studies with SK-N-MC Cells (Expressing the Human CGRP Receptor)
SK-N-MC cells are cultivated in “Dulbecco's modified Eagle medium”. The medium is removed from confluent cultures. The cells are washed twice with PBS buffer (Gibco 041-04190 M), detached by the addition of PBS buffer mixed with 0.02% EDTA, and isolated by centrifuging. After resuspension in 20 ml of “Balanced Salts Solution” [BSS (in mM): NaCl 120, KCl 5.4, NaHCO3 16.2, MgSO4 0.8, NaHPO4 1.0, CaCl2 1.8, D-glucose 5.5, HEPES 30, pH 7.40] the cells are centrifuged twice at 100×g and resuspended in BSS. After the number of cells has been determined, the cells are homogenised using an Ultra-Turrax and centrifuged for 10 minutes at 3000×g. […]
After thawing, the homogenised product is diluted 1:10 with assay buffer (50 mM Tris, 150 mM NaCl, 5 mM MgCl2, 1 mM EDTA, pH 7.40) and homogenised for 30 seconds with an Ultra-Turrax. […] The protein-bound radioactivity is measured using a gamma counter. Non-specific binding is defined as the bound radioactivity after the presence of 1 μM human CGRP-alpha during incubation.
The concentration binding curves are analysed using computer-aided non-linear curve fitting.

Structures are written as SMILES.

Among the data in patent US8450327B2, “CGRP antagonists” (Boehringer Ingelheim International GmbH, priority 2007, dated 2013) are Ki values, retold here.

T1 sequence (Q16602 23-461): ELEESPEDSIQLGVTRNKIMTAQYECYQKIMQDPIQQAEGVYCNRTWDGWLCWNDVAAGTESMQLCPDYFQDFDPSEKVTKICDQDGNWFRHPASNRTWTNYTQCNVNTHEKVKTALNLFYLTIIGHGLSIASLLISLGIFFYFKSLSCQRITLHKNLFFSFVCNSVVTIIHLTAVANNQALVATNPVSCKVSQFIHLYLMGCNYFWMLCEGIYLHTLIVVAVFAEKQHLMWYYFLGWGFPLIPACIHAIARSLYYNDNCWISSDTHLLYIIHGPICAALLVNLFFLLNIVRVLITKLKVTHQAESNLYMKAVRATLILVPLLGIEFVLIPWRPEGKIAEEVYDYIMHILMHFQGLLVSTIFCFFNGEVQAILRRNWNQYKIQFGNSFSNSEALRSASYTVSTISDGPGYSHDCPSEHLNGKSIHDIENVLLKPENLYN
T1 sequence (O60894 27-148): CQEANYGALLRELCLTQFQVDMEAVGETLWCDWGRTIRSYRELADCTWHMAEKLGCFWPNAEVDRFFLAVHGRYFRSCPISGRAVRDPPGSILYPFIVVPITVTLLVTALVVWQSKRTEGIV

In the case of `Cc1cc(C(=O)c2cc(Nc3ccc4c(c3)CC3(C4)C(=O)Nc4ncccc43)ncn2)cc2oc(=O)[nH]c12` (centres unmarked) [Example 2, 4-methyl-6-(6-(2′-oxo-1,1′,2′,3-tetrahydrospiro[inden-2,3′-pyrrolo[2,3-b]pyridin]-5-ylamino)pyrimidine-4-carbonyl)benzo[d]oxazol-2(3H)-one], the Ki (usually the dissociation constant of the complex between target and ligand, obtained from inhibition or displacement) amounted to 0.027 µM.

`Cc1cc(C(=O)c2cc(N3CCC4(CC3)NC(=O)Nc3ccccc34)ncn2)cc2oc(=O)[nH]c12` [Example 1, 4-methyl-6-(6-(2′-oxo-2′,3′-dihydro-1′H-spiro[piperidin-4,4′-quinazolin]-1-yl)pyrimidine-4-carbonyl)benzo[d]oxazol-2(3H)-one] gave an inhibitory constant (Ki) of 0.006 µM.
